Assays:
Assay type in all cases: cell-based, human
Huh7 cells [1] = assay: Transwell invasion assay
Procedure: (§1) Chemotaxis experiments with human HepG2Huh7, or PANC-1 cells were assayed by using transwells (Millipore). The cells to be analyzed (5×10^4 cells/well) were seeded in the upper chambers of the 24-well plate in 400 μL serum-free medium. FBS (10%) was used as the chemoattractant with or without different concentrations of the test compound (e.g., ACK900, ACK901, ACK902) in the lower chamber, and the plate was incubated under standard conditions. After incubation for 18 hours, the media in the upper chambers were aspirated and washed with phosphate-buffered saline (PBS) twice. Both non-migrated and migrated cells were fixed with 4% paraformaldehyde (PFA) for 30 minutes at room temperature, stained with 2% crystal violet solution. The non-invading cells were removed from the upper surface of the insert membrane with a cotton swab. The images were taken using an imaging reader (Cytation 5, BioTek, VT, U.S.A.) and analyzed using NIH ImageJ software. Percent in the results represent percent of initial number of cells in the migrating and nonmigrating Cell fractions.

HepG2 cells [2] = assay: Transwell invasion assay
Procedure: as §1

PANC-1 cells [3] = assay: Transwell invasion assay; conditions: PANC-1, transwell
Procedure: as §1

HepG2 cells [4] = assay: Surface binding of lectin by fluorescence microscopy; conditions: HepG2, 10 μM, 48 h
[5] = system: all cancer cell lines (HepG2, Huh7, PANC-1, H1975, MDA-MB-231); assay: Anti-proliferative activity, pooled statement over all cancer cell lines; conditions: read-out: half maximum inhibitory concentration (IC50), range in all cancer cell lines
Procedure: (§2) Anti-proliferative activity of HepG2, Huh7 or PANC-1 cells was determined by 3-(4,5-dimethylthiazol-2-yl)-2,5-diphenyltetrazolium bromide (MTT) assay, while that of H1975 or MDA-MB-231 cells was determined by luminescent assay with the aid of commercial kit CellTiter-Glo® (Promega).
Cancer cells including HepG2, Huh7 and PANC-1 cells were respectively seeded at 10^4, 4×10^3, and 5×10^3 cells/well in 96-well plates and maintained for 14-16 hours. Cells were treated with dimethylsulfoxide (DMSO) or test compounds in varied concentrations for 72 h. Cells were then washed with PBS twice, added a medium containing 3-(4,5-dimethylthiazol-2-yl)-2,5-diphenyltetrazolium bromide (MTT) at a final concentration of 0.5 mg/mL, and incubated for 4 h at 37° C. in a humidified incubator containing 5% CO2 in air. Cells having functional succinate dehydrogenase of mithchondria would convert MTT to formazan. Then, the medium was replaced with 100 μL of DMSO for 30 min at room temperature, and the 96-well plate was read by an ELISA reader at 550 nm to get the absorbance density values. The IC50 values of death cell lines were calculated accordingly.
(§3) For H1975 and MDA-MB-231, cells were respectively seeded at 5×10^3 cells/well in 96-well plates and maintained for 14-16 hours. Cells were treated with dimethylsulfoxide (DMSO) or test compounds in varied concentrations for 48 h. Cell viability was monitored using Cell-TiterGlo (Promega), a kit that measures the quantity of ATP present in the cell culture, an indicator of metabolically active cells. The IC50 values of death cell lines were calculated accordingly.

H1975 cells = assay: Anti-proliferative activity assay (CellTiter-Glo); conditions: 48 h
Procedure: (§4) Human liver cancer HepG2 cells and Huh7 cells, breast cancer MDA-MB-231 cells, pancreatic cancer PANC-1 cells, and non-small cell lung (NSCL) cancer H1975 cells were maintained in Dulbecco's Modified Eagle Medium supplemented containing 10% fetal bovine serum (FBS), 100 units/ml penicillin and […] streptomycin in 37° C. incubator with 5% CO2.
as §2, §3

MDA-MB-231 cells = assay: Anti-proliferative activity assay (CellTiter-Glo); conditions: 48 h
Procedure: as §4, §2, §3

Huh7 cells [6] = assay: Transwell migration assay; conditions: 18 hours
Procedure: as §1

HepG2 cells [7] = assay: Transwell migration assay; conditions: 18 hours
Procedure: as §1

PANC-1 cells [8] = assay: Transwell migration assay; conditions: PANC-1, transwell, 18 hours
Procedure: as §1

For `CCC[C@H]1CC[C@H](c2ccc(NC(=S)NC[C@@H]3[C@@H](O)[C@@H](O)[C@H]4[C@H](O)CCCN43)cc2)CC1` [ACK900], the invasive capability (Huh7 cells [1]) was “remarkably decreased”, the invasive capability (HepG2 cells [2]) was “remarkably decreased” and the invasive capability (PANC-1 cells [3]) was “remarkably decreased”. The “surface binding of Concanavalin A (ConA)” value (HepG2 cells [4]) was “markedly increased”, the “surface binding of galectin-1 (Gal1)” value (HepG2 cells [4]) was “substantially decreased” and the IC50 [5] was 0.3 to 19.1 µM. The IC50 (H1975 cells) was 13.9 µM, the IC50 (MDA-MB-231 cells) was 4.6 µM and the migratory capability (Huh7 cells [6]) was “remarkably decreased”. The migratory capability (HepG2 cells [7]) was “remarkably decreased” and the migratory capability (PANC-1 cells [8]) was “remarkably decreased”.
